Holding throughout (experiment): inhibition of tumour cell growth, NCI panel, 48 h
The test system of assay [1] is MDA-MB-231.
Assay [2] deals with OVCAR-5.
For assay [3], the system named is SF-295.
The test system of assay [4] is NCI/ADR-RES.
In assay [5] the test system is T47D.
Assay [6] concerns PC-3.
Assay [7] relates to RPMI-8226.
Assay [8] relates to DU-145.
Assay [9] concerns HT-29.
Assay [10] deals with HOP-92.
Assay [11] concerns MCF7.
In assay [12] the test system is SK-MEL-28.
Assay [13] has as its system MDA-N.
Assay [14] has as its system Hs-578T.
Assay [15] has as its system SF-539.
In assay [16] the test system is Malme-3M.
Assay [17] deals with RXF 393.
Assay [18] has as its system BT-549.

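Cultured in 96-well plates, cells were exposed to test compound for 48 hours across five concentrations. Here, GI50 denotes the concentration required for 50% inhibition of growth.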 Calls of active or inactive are those of the source. Rule as the data show it: active = GI50 up to about 1.1 µM and inactive = higher. Where only a bound is given, the exact number is not on record here.

For the compound `CCOP(=O)(OCC)C(Cc1c[nH]c2ccccc12)C(=O)O` (stereo unspecified), the GI50 in assay [1], in [2], in [3], in [4], in assay [5] and in assay [6] was > 100 µM (inactive) each time. Also, the GI50 is > 100 µM (inactive) in [7]; > 100 µM (inactive) in assay [8]; > 100 µM (inactive) in assay [9]; > 100 µM (inactive) in assay [10]; 37.2 µM (inactive) in [11]; > 100 µM (inactive) in assay [12]. Further, the GI50 in assay [13] and in assay [14] was > 100 µM (inactive) in each case.

As to `CC(NC(=O)c1ccc(OP(=O)(OCC2=CC(=O)c3ccccc3C2=O)N(C)CCCCCl)cc1)c1ccc(OCC2CCCCC2)c(C(N)=O)c1` (stereo unspecified), the GI50 was 8.99 µM (inactive) in assay [1]; 21.4 µM (inactive) in assay [2]; 5.06 µM (inactive) in assay [3]; 14.8 µM (inactive) in [4]; 0.0891 µM (active) in [5]; 14.2 µM (inactive) in [6]. For the same compound, the GI50 was 11.2 µM (inactive) in [7]; 3.5 µM (inactive) in assay [8]; 15.2 µM (inactive) in assay [15]; 15.1 µM (inactive) in assay [9]; 0.0244 µM (active) in [10]; 11.4 µM (inactive) in [11]. Also, the GI50 in assay [12] is 14.2 µM (inactive); in [13], 2.72 µM (inactive); in [14] it was 2.52 µM (inactive); in [16] it was 1.88 µM (inactive).

On to `CCOC(=O)c1nc2ccc(C(F)(F)F)cc2nc1NCc1ccc(Cl)c(Cl)c1`, for which the GI50 in assay [1] is 30.2 µM (inactive); in assay [2], > 100 µM (inactive); in assay [17] it was 24.4 µM (inactive); in assay [3], 29.8 µM (inactive); in assay [4] it was 47.1 µM (inactive); in [5] it was 44.5 µM (inactive). Besides, the GI50 was 37 µM (inactive) in assay [18]; 22.8 µM (inactive) in assay [6]; > 100 µM (inactive) in [7]; 61.9 µM (inactive) in assay [15]; 29.1 µM (inactive) in assay [9]; 14.6 µM (inactive) in [10]. Besides, the GI50 in assay [11] was 30.4 µM (inactive); in assay [13], 57.4 µM (inactive); in assay [14], 20.8 µM (inactive); in assay [16], 21.8 µM (inactive).

For `O=[N+]([O-])/C=C/c1cn(CCCCCCCCn2cc(/C=C/[N+](=O)[O-])c3ccccc32)c2ccccc12`, the GI50 in assay [1], in assay [2], in assay [17], in assay [3], in assay [4] and in assay [5] was > 10 µM (inactive) each time. Further, the GI50 in assay [6] was > 10 µM (inactive); in assay [7] it was 0.41 µM (active); in [8], > 10 µM (inactive); in assay [15] it was > 10 µM (inactive); in assay [9], > 10 µM (inactive); in assay [10], > 10 µM (inactive). The GI50 in assay [12] was > 10 µM (inactive); in [13] it was 0.61 µM (active); in [14] it was 6.92 µM (inactive); in assay [16] it was > 10 µM (inactive).

`Cc1c2c(n(CCN(C)C)c1C)NN=C(C#N)S2(=O)=O`: the GI50 in [1], in assay [2], in assay [4], in [5], in assay [6] and in assay [7] was > 100 µM (inactive) throughout. The GI50 in assay [8], in assay [15], in assay [9], in [11], in [12] and in [13] was > 100 µM (inactive) each time. For the same compound, the GI50 in assay [14] and in assay [16] was > 100 µM (inactive) in each case.

Take `CCN(CC)c1ccc2cc(C(=O)Nc3nc(C45CC6CC(CC(C6)C4)C5)cs3)c(=O)oc2c1`: the GI50 in [1], in [2], in assay [17], in assay [3], in assay [4] and in [18] was > 100 µM (inactive) in each case. For the same compound, the GI50 in assay [6], in [7], in [8], in assay [15], in assay [9] and in assay [10] was > 100 µM (inactive) throughout. The GI50 in assay [11], in [12], in assay [13], in assay [14] and in assay [16] was > 100 µM (inactive) in each case.

As for `O=c1[nH]c2cc(C(F)(F)F)ccc2nc1C(F)(F)F`, the GI50 in assay [1] is 31.3 µM (inactive); in [2] it was 36.9 µM (inactive); in assay [17] it was 20.3 µM (inactive); in assay [3], 30 µM (inactive); in assay [4] it was 37.9 µM (inactive); in [5], 36.6 µM (inactive). For the same compound, the GI50 in [18] was 44.2 µM (inactive); in assay [6] it was 37.8 µM (inactive); in assay [7], 31.5 µM (inactive); in [8] it was 33.8 µM (inactive); in [15], 25.2 µM (inactive); in [9], 36.4 µM (inactive). The GI50 was 16.6 µM (inactive) in [10]; 53.6 µM (inactive) in assay [11]; 68.9 µM (inactive) in assay [12]; 32.7 µM (inactive) in [13]; 35.2 µM (inactive) in assay [16].

Turning to `COc1ccc(-c2c3c([nH]c(=S)c2C#N)CC(C)(C)CC3=O)cc1`, the GI50 in assay [1] is > 100 µM (inactive); in assay [2], > 100 µM (inactive); in [17], > 100 µM (inactive); in assay [3] it was > 100 µM (inactive); in [5], 59.6 µM (inactive); in assay [18] it was > 100 µM (inactive). Further, the GI50 in assay [6], in assay [7], in [8], in [15], in assay [9] and in assay [10] was > 100 µM (inactive) in each case. Also, the GI50 in assay [11], in assay [12], in [13], in assay [14] and in assay [16] was > 100 µM (inactive) throughout.

As to `O=c1cc(NNc2ccccc2)[nH]c(=O)[nH]1`, the GI50 was 15.8 µM (inactive) in assay [1]; > 100 µM (inactive) in assay [2]; 37.9 µM (inactive) in assay [3]; 22.8 µM (inactive) in assay [4]; > 10 µM (inactive) in assay [5]; 21.9 µM (inactive) in assay [6]. Besides, the GI50 in assay [7] is 11.1 µM (inactive); in [8] it was > 100 µM (inactive); in assay [15] it was 71.6 µM (inactive); in [9], 22.1 µM (inactive); in assay [11], 12.9 µM (inactive); in assay [12], 11.2 µM (inactive). The results for the GI50 in assay [13], in assay [14] and in assay [16] were 20.2 µM (inactive), 80.7 µM (inactive) and 19.8 µM (inactive), respectively.

Turning to `COC(=O)C1CCC(=O)N1C(c1ccc2c(c1)OCO2)c1cc(OC)c(OC)c(OC)c1` (stereo unspecified), the GI50 in [1], in assay [2], in assay [3], in assay [18], in assay [6] and in [7] was > 100 µM (inactive) throughout. For the same compound, the GI50 in assay [8], in assay [15], in [9], in assay [10], in assay [11] and in assay [12] was > 100 µM (inactive) each time. In addition, the GI50 in [13], in assay [14] and in assay [16] was > 100 µM (inactive) each time.

Take `O=C1OC(c2ccc(O)cc2)(c2ccc(O)cc2)c2ccc(Cl)c3cccc1c23.O=C1OC(c2ccc(O)cc2)(c2ccc(O)cc2)c2cccc3c(Cl)ccc1c23`: the GI50 in [1] was 10.7 µM (inactive); in assay [2] it was 9.84 µM (inactive); in assay [17] it was 10.8 µM (inactive); in [3], 12.2 µM (inactive); in [4] it was 11.7 µM (inactive); in [18], 11.8 µM (inactive). In addition, the GI50 in assay [6] was 3.48 µM (inactive); in [7], 12.5 µM (inactive); in [8], 75 µM (inactive); in assay [15] it was 10.7 µM (inactive); in [9] it was 12.2 µM (inactive); in [10] it was 24.2 µM (inactive). Further, the GI50 in [11] was 13.6 µM (inactive); in assay [12], 4.09 µM (inactive); in assay [13] it was 11.8 µM (inactive); in assay [14], 12.1 µM (inactive); in assay [16], 9.55 µM (inactive).

With `C[C@]12CC[C@H](O[C@@H]3O[C@H](CO[C@@H]4O[C@H](CO)[C@@H](O)[C@H](O)[C@H]4O)[C@@H](O)[C@H](O)[C@H]3O)C[C@@H]1CC[C@@H]1[C@@H]2CC[C@]2(C)[C@@H](C3=CC(=O)OC3)CC[C@]12O` [UZARIN], the GI50 is > 80.2 µM (inactive) in assay [1]; 27.4 µM (inactive) in assay [2]; 12.5 µM (inactive) in assay [17]; 17.3 µM (inactive) in [3]; 15.4 µM (inactive) in assay [4]; 31.1 µM (inactive) in assay [5]. In addition, the GI50 in assay [18] is 6.71 µM (inactive); in [6], 28.2 µM (inactive); in assay [7], 43.4 µM (inactive); in assay [8], 13.3 µM (inactive); in [15], 15.5 µM (inactive); in assay [9] it was 35.8 µM (inactive). In addition, the GI50 in assay [10] was 29.4 µM (inactive); in assay [12], > 80 µM (inactive); in assay [13], 29 µM (inactive); in assay [14], 19.5 µM (inactive); in assay [16] it was 17.5 µM (inactive).

These data come from ChEMBL document CHEMBL1201862, “PubChem BioAssay data set” (2004).
